Assay results: the supplement of paper PMC10307832

Key:
Assay in all cases: relative viability (nuclei count vs DMSO), 5 days (fraction); higher = more cells survive
Mirin + Pemetrexed = compound: N=C1NC(=O)/C(=C/c2ccc(O)cc2)S1 [Mirin] + Nc1nc2[nH]cc(CCc3ccc(C(=O)N[C@@H](CCC(=O)O)C(=O)O)cc3)c2c(=O)[nH]1 [Pemetrexed] (partner 0.2 µM)
Procedure, shortened: (§1)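 Lung cancer cell lines were seeded in 1536-well plates and dosed by pin tool the next day, with either a single drug or a fixed anchor-drug dose combined with five library-drug doses (not always all listed) spaced in √10 steps. Five days later, one step fixed the cells and stained their nuclei (final 0.05% Triton X-100, 1% formaldehyde, 1 ug/ml Hoechst), and nuclei were counted on 4× images. Relative viability is the nuclei count in treated wells divided by the count in vehicle wells, and each value is the median of duplicate plates.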

Mirin + Navitoclax = compound: N=C1NC(=O)/C(=C/c2ccc(O)cc2)S1 [Mirin] + CC1(C)CCC(c2ccc(Cl)cc2)=C(CN2CCN(c3ccc(C(=O)NS(=O)(=O)c4ccc(N[C@H](CCN5CCOCC5)CSc5ccccc5)c(S(=O)(=O)C(F)(F)F)c4)cc3)CC2)C1 [Navitoclax] (partner 0.5 µM)
Procedure, shortened: as §1

Mirin + Dasatinib = compound: N=C1NC(=O)/C(=C/c2ccc(O)cc2)S1 [Mirin] + Cc1nc(Nc2ncc(C(=O)Nc3c(C)cccc3Cl)s2)cc(N2CCN(CCO)CC2)n1 [Dasatinib] (partner 0.075 µM)
Procedure, shortened: as §1

Mirin + Foretinib = compound: N=C1NC(=O)/C(=C/c2ccc(O)cc2)S1 [Mirin] + COc1cc2c(Oc3ccc(NC(=O)C4(C(=O)Nc5ccc(F)cc5)CC4)cc3F)ccnc2cc1OCCCN1CCOCC1 [Foretinib] (partner 0.25 µM)
Procedure, shortened: as §1

Cell Line	relative viability (Mirin + Pemetrexed; first compound 0.25 µM)	relative viability (Mirin + Pemetrexed; first compound 0.7906 µM)	relative viability (Mirin + Pemetrexed; first compound 2.5 µM)	relative viability (Mirin + Pemetrexed; first compound 7.906 µM)	relative viability (Mirin + Pemetrexed; first compound 25 µM)	relative viability (Mirin + Navitoclax; first compound 0.25 µM)	relative viability (Mirin + Navitoclax; first compound 0.7906 µM)	relative viability (Mirin + Navitoclax; first compound 2.5 µM)	relative viability (Mirin + Navitoclax; first compound 7.906 µM)	relative viability (Mirin + Navitoclax; first compound 25 µM)	relative viability (Mirin + Dasatinib; first compound 0.25 µM)	relative viability (Mirin + Dasatinib; first compound 0.7906 µM)	relative viability (Mirin + Dasatinib; first compound 2.5 µM)	relative viability (Mirin + Dasatinib; first compound 7.906 µM)	relative viability (Mirin + Dasatinib; first compound 25 µM)	relative viability (Mirin + Foretinib; first compound 0.25 µM)	relative viability (Mirin + Foretinib; first compound 0.7906 µM)	relative viability (Mirin + Foretinib; first compound 2.5 µM)	relative viability (Mirin + Foretinib; first compound 7.906 µM)	relative viability (Mirin + Foretinib; first compound 25 µM)
LU99A	0.159	0.204	0.186	0.137	0.17	0.706	0.677	0.92	0.742	0.542	0.574	0.564	0.509	0.423	0.531	0.71	0.631	0.795	0.71	0.566
LXF-289	0.902	0.856	0.923	0.791	0.821	0.934	0.986	0.97	1.01	1.13	0.26	0.214	0.202	0.207	0.202	1.04	1.03	0.939	1.09	1.01
NCI-H23	0.782		0.643	0.598	0.541	0.941		0.783	0.682	0.71	0.934		0.77	0.604	0.555	0.8		1.13	0.891	0.773
NCI-H322M	0.633	0.528	0.615	0.713	0.568	1.26	1.28	1.25	1.22	1.31	0.264	0.258	0.246	0.268	0.244	1.06	1.02	1.07	0.934	1.05
NCI-H441	0.227	0.262	0.251	0.261	0.251	0.49	0.802	0.571	0.447	0.483	0.662	0.556	0.622	0.59	0.439	1.02	1.16	0.995	1.09	1.05
NCI-H460	0.0601	0.0695	0.0719	0.0635	0.0557	1.18	1.27	1.19	1.06	0.913	0.566	0.487	0.468	0.457	0.38	1.08	1.04	0.999	1.04	1.08
NCI-H520	0.654	0.591	0.7	0.545	0.449	1.03	1.11	1.35	0.829	0.676	0.192	0.164	0.282	0.172	0.249	0.742	0.784	0.874	0.874	0.439
NCI-H596	0.493	0.542	0.437	0.521	0.539	0.966	0.855	0.96	1.15	0.962	0.643	0.596	0.559	0.525	0.569	0.826	0.953	1.03	0.916	1.08
